Data on 20 molecules can be found in ChEMBL document CHEMBL1131910, “Exploratory solid-phase synthesis of factor Xa inhibitors: discovery and application of p3-heterocyclic amides as novel types of non-basic arginine surrogates” (Bioorg Med Chem Lett, 1999).

A word on the IC50: it is the concentration needed to halve the response being measured. A lower IC50 goes with greater potency in that assay.

Assay [1] addresses T1, Serine protease 1 (Homo sapiens, UniProt P07477). Description: In vitro inhibition of human trypsin.
For assay [2], the target named is T2, Coagulation factor X (Homo sapiens, UniProt P00742). Description: In vitro inhibition of human Factor Xa.
The target of assay [3] is T3, Plasminogen (Homo sapiens, UniProt P00747). Kind of assay: In vitro inhibition of human thrombolytic protease Plasmin.
For assay [4], the target named is T4, Prothrombin (Homo sapiens, UniProt P00734). Kind of assay: In vitro inhibition of human Thrombin (FIIa).
The target of assay [5] is T3, Plasminogen. Description: In vitro inhibition against human thrombolytic protease Plasmin was evaluated; Inactive.
In assay [6] the target is T2, Coagulation factor X. Description: In vitro inhibition against human Factor Xa (FXa) was evaluated; Inactive.
The target in assay [7] is T1, Serine protease 1. Kind of assay: In vitro inhibition against human trypsin was evaluated; Inactive.
Assay [8] deals with T4, Prothrombin. Kind of assay: In vitro inhibition against human Thrombin ( FIIa) was evaluated; Inactive.

T2 sequence (P00742 41-179 limits assumed): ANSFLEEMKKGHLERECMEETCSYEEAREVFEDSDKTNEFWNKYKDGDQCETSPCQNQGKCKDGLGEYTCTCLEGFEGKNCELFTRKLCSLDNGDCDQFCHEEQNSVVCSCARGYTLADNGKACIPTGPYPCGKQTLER
T2 sequence (P00742 235-488 limits assumed): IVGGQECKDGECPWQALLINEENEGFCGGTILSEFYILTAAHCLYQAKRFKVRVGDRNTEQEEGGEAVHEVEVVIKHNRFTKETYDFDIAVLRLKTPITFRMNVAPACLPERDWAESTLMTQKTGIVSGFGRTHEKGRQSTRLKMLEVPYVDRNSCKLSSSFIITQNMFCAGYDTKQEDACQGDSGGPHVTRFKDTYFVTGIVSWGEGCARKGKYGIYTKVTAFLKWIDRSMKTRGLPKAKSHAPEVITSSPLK
T3 sequence (P00747 97-580 limits assumed): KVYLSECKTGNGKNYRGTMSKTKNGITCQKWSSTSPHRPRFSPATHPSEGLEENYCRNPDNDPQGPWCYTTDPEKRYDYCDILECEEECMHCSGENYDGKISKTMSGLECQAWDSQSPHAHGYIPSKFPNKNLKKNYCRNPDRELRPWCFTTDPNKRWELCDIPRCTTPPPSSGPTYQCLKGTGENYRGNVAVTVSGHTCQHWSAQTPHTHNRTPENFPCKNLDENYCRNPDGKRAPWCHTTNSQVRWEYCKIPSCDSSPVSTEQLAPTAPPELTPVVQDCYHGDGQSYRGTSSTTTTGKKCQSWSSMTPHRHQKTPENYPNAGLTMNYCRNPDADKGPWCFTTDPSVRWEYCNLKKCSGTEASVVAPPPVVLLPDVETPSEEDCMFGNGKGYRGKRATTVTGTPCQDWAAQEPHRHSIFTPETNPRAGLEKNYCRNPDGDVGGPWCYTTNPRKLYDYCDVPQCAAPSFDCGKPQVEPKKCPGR
T3 sequence (P00747 581-810 limits assumed): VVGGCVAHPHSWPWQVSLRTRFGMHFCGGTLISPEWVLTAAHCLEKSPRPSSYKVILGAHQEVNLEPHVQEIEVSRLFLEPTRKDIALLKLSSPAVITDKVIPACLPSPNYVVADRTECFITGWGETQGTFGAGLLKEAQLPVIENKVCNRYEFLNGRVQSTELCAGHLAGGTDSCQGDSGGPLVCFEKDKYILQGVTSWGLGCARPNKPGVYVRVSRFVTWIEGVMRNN
T1 sequence (P07477 whole entry): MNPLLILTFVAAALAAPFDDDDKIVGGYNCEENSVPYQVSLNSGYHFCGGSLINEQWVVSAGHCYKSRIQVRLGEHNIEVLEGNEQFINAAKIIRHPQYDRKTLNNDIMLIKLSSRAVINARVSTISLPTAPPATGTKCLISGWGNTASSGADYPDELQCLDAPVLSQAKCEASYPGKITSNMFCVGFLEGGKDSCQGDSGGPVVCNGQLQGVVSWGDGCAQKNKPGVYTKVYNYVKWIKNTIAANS

`N=C(N)N1CCC[C@H](NC(=O)CNC(=O)[C@@H](CCNC(=O)c2cnccn2)NC(=O)OCc2ccccc2)C1O` (some centres undefined): the IC50 in assay [1] turned out to be 30 nM; in assay [2], 106 nM; in assay [3], 2030 nM; in assay [4], 2500 nM.
With `N=C(N)N1CCC[C@H](NC(=O)CNC(=O)[C@@H](CCNC(=O)c2nccc3ccccc23)NC(=O)OCc2ccccc2)C1O` (some centres undefined), the IC50 is more than 2500 nM in assay [1], 313 nM in assay [2], more than 2500 nM in assay [3] and more than 2500 nM in assay [4].
With `N=C(N)N1CCC[C@H](NC(=O)CNC(=O)[C@@H](CCNC(=O)c2cnc3ccccc3c2)NS(=O)(=O)Cc2ccccc2)C1O` (some centres undefined), the IC50 in assay [1] came out at 111 nM; in assay [2], 10.6 nM; in assay [3] it was 250 nM; in assay [4] it was 537 nM.
Turning to `N=C(N)N1CCC[C@H](NC(=O)CNC(=O)[C@@H](CCNC(=O)c2cn[nH]c2)NC(=O)OCc2ccccc2)C1O` (some centres undefined), the IC50 in assay [1] was 74.5 nM; in assay [2], 346 nM; in assay [3], 3270 nM; in assay [4] it was more than 2500 nM.
For the molecule `N=C(N)N1CCC[C@H](NC(=O)CNC(=O)[C@@H](CCNC(=O)c2cncc(Br)c2)NS(=O)(=O)Cc2ccccc2)C1O` (some centres undefined), the IC50 in assay [1] was 160 nM; in assay [2], 10.6 nM; in assay [3], 1060 nM; in assay [4], more than 2500 nM.
Regarding `N=C(N)N1CCC[C@H](NC(=O)CNC(=O)[C@@H](CCNC(=O)c2cnccn2)NS(=O)(=O)Cc2ccccc2)C1O` (some centres undefined), the IC50 in assay [1] is 166 nM; in assay [2], 5 nM; in assay [3], 521 nM; in assay [4] it was more than 2500 nM.
For `N=C(N)N1CCC[C@H](NC(=O)CNC(=O)[C@@H](CCNC(=O)c2ccc3ccccc3n2)NS(=O)(=O)Cc2ccccc2)C1O` (some centres undefined), the IC50 in assay [1] was found to be 59.2 nM; in assay [2], 44.4 nM; in assay [3], 1440 nM; in assay [4], 1270 nM.
On to `N=C(N)N1CCC[C@H](NC(=O)CNC(=O)[C@@H](CCNC(=O)c2ccccc2)NS(=O)(=O)Cc2ccccc2)C1O` (some centres undefined), for which the IC50 entry in assay [5], in assay [6], in assay [7] and in assay [8] was “Not Active” throughout.
For `N=C(N)N1CCC[C@H](NC(=O)CNC(=O)[C@@H](CCNC(=O)c2cccnc2)NS(=O)(=O)Cc2ccccc2)C1O` (some centres undefined), the IC50 in assay [1] is 561 nM; in assay [2], 79.1 nM; in assay [3], 2500 nM; in assay [4] it was more than 2500 nM.
For the molecule `N=C(N)N1CCC[C@H](NC(=O)CNC(=O)[C@@H](CCNC(=O)c2cncc(Br)c2)NC(=O)OCc2ccccc2)C1O` (some centres undefined), the IC50 in assay [1] is more than 31.2 nM; in assay [2], 313 nM; in assay [3] it was more than 2500 nM; in assay [4], more than 2500 nM.
`Cc1cnc(C(=O)NCC[C@@H](NC(=O)OCc2ccccc2)C(=O)NCC(=O)N[C@H]2CCCN(C(=N)N)C2O)cn1` (some centres undefined): the IC50 was 40.3 nM in assay [1], 232 nM in assay [2], more than 2500 nM in assay [3] and more than 2500 nM in assay [4].
For the molecule `N=C(N)N1CCC[C@H](NC(=O)CNC(=O)[C@@H](CNC(=O)c2cnccn2)NS(=O)(=O)Cc2ccccc2)C1O` (some centres undefined), the IC50 is 152 nM in assay [1], 311 nM in assay [2], 1480 nM in assay [3] and more than 2500 nM in assay [4].
As for `N=C(N)N1CCC[C@H](NC(=O)CNC(=O)[C@@H](CCNC(=O)c2ccc(O)nc2)NS(=O)(=O)Cc2ccccc2)C1O` (some centres undefined), the IC50 in assay [1] was 26.6 nM; in assay [2], 6.1 nM; in assay [3], 367 nM; in assay [4], more than 2500 nM.
In the same order, the values of `N=C(N)N1CCC[C@H](NC(=O)CNC(=O)[C@@H](CCNC(=O)c2cnnc3ccccc23)NS(=O)(=O)Cc2ccccc2)C1O` (some centres undefined) are 4.21 nM, 5.6 nM, 700 nM and 1770 nM.
As for `N=C(N)N1CCC[C@H](NC(=O)CNC(=O)[C@@H](CCNC(=O)c2nccc3ccccc23)NS(=O)(=O)Cc2ccccc2)C1O` (some centres undefined), the IC50 in assay [1] was 97.8 nM; in assay [2], 4.9 nM; in assay [3], 730 nM; in assay [4], more than 2500 nM.
In the same order, the values of `N=C(N)N1CCC[C@H](NC(=O)CNC(=O)[C@@H](CCNC(=O)c2ccccn2)NS(=O)(=O)Cc2ccccc2)C1O` (some centres undefined) are 223 nM, 20.5 nM, 1140 nM and more than 2500 nM.
In the same order, the values of `N=C(N)N1CCC[C@H](NC(=O)CNC(=O)[C@@H](CCCNC(=O)c2cnccn2)NS(=O)(=O)Cc2ccccc2)C1O` (some centres undefined) are 324 nM, 15 nM, 673 nM and 2500 nM.
Regarding `N=C(N)N1CCC[C@H](NC(=O)CNC(=O)[C@@H](CCNC(=O)c2cnc3ccccc3c2)NC(=O)OCc2ccccc2)C1O` (some centres undefined), the IC50 in assay [1] was 20.4 nM; in assay [2], 169 nM; in assay [3], 1140 nM; in assay [4], more than 2500 nM.
As to `N=C(N)N1CCC[C@H](NC(=O)CNC(=O)[C@@H](CCNC(=O)c2nc3ccccc3nc2O)NS(=O)(=O)Cc2ccccc2)C1O` (some centres undefined), the IC50 result in assay [5] was “Not Active”; in assay [2], more than 2500 nM; in assay [4] it was more than 2500 nM; in assay [7], “Not Active”.
Take `N=C(N)NCCCC(NS(=O)(=O)Cc1ccccc1)C(=O)NCC(=O)N[C@H]1CCCN(C(=N)N)C1O` (some centres undefined): the IC50 in assay [1] is 75 nM; in assay [2] it was 0.7 nM; in assay [4], more than 2500 nM.
